# From publication PMC5513037, “Examining the influence of specificity ligands and ATP-competitive ligands on the overall effectiveness of bivalent kinase inhibitors” (Proteome Science, 2017)
# How the values were obtained:
# CDK6 = target: T1, CDK6 (Homo sapiens, UniProt Q00534); experiment: KAM-matrix competition in K562 lysate; assay type: binding; settings: relative to 0 uM KAM = 0;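 note: median log10 fold change of treatment over DMSO control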
# T1 construct: endogenous in cells; host or cells: K562
# Protocol: (§1) Supplement 12953_2017_125_MOESM1_ESM.zip/MS_Supp Info.xlsx, sheet "KAM" | column: 10 uM KAM; 1 uM KAM; 0.1 uM KAM; 0.001 uM KAM
# MAP3K11 = target: T2, MAP3K11 (Homo sapiens, UniProt Q16584); experiment: KAM-matrix competition in K562 lysate; assay type: binding; settings: relative to 0 uM KAM = 0;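 note: median log10 fold change of treatment over DMSO control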
# T2 construct: endogenous in cells; host or cells: K562
# Protocol: as §1
# TAF1L = target: T3, TAF1L (Homo sapiens, UniProt Q8IZX4); experiment: KAM-matrix competition in K562 lysate; assay type: binding; settings: relative to 0 uM KAM = 0;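 note: median log10 fold change of treatment over DMSO control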
# T3 construct: endogenous in cells; host or cells: K562
# Protocol: Supplement 12953_2017_125_MOESM1_ESM.zip/MS_Supp Info.xlsx, sheet "KAM" | column: 1 uM KAM; 0.01 uM KAM
# RPS6KC1 = target: T4, RPS6KC1 (Homo sapiens, UniProt Q96S38); experiment: KAM-matrix competition in K562 lysate; assay type: binding;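 for 0.001 uM KAM: median log10 fold change of treatment over DMSO control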;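 for 0.1 uM KAM: median log10 fold change of treatment over DMSO control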;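 for 1 uM KAM: median log10 fold change of treatment over DMSO control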;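 for 10 uM KAM: median log10 fold change of treatment over DMSO control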
# T4 construct: endogenous in cells; host or cells: K562 cell lysate
# T4 sequence (Q96S38 1-1066): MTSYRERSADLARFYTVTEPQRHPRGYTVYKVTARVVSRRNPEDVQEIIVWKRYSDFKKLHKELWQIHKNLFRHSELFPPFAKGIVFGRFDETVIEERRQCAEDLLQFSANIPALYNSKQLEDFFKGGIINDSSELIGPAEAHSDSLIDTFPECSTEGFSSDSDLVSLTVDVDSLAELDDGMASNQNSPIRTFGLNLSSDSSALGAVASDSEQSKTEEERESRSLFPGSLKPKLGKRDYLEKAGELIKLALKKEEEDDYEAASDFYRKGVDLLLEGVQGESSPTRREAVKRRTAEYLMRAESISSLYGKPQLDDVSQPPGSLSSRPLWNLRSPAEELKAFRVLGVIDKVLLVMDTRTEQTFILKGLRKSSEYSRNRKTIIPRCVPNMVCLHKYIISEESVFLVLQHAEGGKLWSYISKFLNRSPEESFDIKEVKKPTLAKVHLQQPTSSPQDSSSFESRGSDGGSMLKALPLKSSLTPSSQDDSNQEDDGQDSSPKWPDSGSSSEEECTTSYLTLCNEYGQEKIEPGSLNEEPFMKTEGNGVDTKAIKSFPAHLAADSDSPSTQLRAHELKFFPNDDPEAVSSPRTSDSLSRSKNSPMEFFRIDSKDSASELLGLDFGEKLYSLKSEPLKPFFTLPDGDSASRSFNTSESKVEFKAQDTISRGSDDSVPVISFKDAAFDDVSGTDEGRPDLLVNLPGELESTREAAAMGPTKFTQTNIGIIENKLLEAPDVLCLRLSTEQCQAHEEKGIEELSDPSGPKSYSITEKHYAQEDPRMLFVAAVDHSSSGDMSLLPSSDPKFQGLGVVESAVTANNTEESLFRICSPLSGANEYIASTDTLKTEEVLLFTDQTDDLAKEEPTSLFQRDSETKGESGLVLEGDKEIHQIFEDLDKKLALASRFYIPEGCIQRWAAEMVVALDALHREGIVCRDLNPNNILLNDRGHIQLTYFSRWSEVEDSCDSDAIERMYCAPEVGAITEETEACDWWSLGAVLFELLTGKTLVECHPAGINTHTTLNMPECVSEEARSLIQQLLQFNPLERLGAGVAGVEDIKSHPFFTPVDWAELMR
# Protocol: Supplement 12953_2017_125_MOESM1_ESM.zip/MS_Supp Info.xlsx, sheet "KAM" | column: 10 uM KAM; 1 uM KAM; 0.1 uM KAM; 0.001 uM KAM; RB50
# GSK3B = target: T5, GSK3B (Homo sapiens, UniProt P49841); experiment: KAM-matrix competition in K562 lysate; assay type: binding
# T5 construct: endogenous in cells; host or cells: K562
# Protocol: (§2) For synthesis of KAM-derivatized resin, packed NHS-activated sepharose 4 fast flow resin (volume = 2 mL; GE Healthcare) was washed with anhydrous DMSO (3 × 10 mL). To the washed NHS-activated sepharose resin was added 0.5 mM KAM in anhydrous DMSO (8 mL; 2 μmol compound/mL of resin), followed by the addition of triethylamine (30 μL). The reaction mixture was vortexed to mix and pelleted by centrifugation (100 x g, 2 min). An aliquot of the supernatant (50 μL) was saved for LC/MS analysis. The reaction mixture was allowed incubate overnight at room temp with end-over-end rotating agitation. On the following day, the reaction mixture was pelleted by centrifugation (100 x g, 2 min). An aliquot of the supernatant (50 μL) was saved for LC/MS analysis. […] 2-(2-Aminoethoxy)ethanol (100 μL; Sigma-Aldrich) was added to the reaction mixture, vortexed, and incubate overnight at room temp with end-over-end agitation. The KAM-derivatized resin was then washed with anhydrous DMSO (3 × 10 mL) and 95% EtOH (3 × 10 mL).
# (§3) Data were visualized for further analysis using Spotfire DXP.
# CDK9 = target: T6, CDK9 (Homo sapiens, UniProt P50750); experiment: KAM-matrix competition in K562 lysate; assay type: binding
# T6 construct: endogenous in cells; host or cells: K562
# Protocol: as §2, §3
# ATM = ATM (Homo sapiens, UniProt Q13315); experiment: biochemical
# BRDT = BRDT (Homo sapiens, UniProt Q58F21); experiment: biochemical
# PSKH1 = PSKH1 (Homo sapiens, UniProt P11801); experiment: biochemical
# NRBP1 = NRBP1 (Homo sapiens, UniProt Q9UHY1); experiment: biochemical
# PIK3R4 = target: T7, PIK3R4 (Homo sapiens, UniProt Q99570); experiment: Imatinib-matrix competition in K562 lysate; assay type: binding; settings: read-out: RB50 (the source's name)
# T7 construct: endogenous in cells; host or cells: K562
# PSKH2 = PSKH2 (Homo sapiens, UniProt Q96QS6); experiment: biochemical
# T6 sequence (P50750 whole entry): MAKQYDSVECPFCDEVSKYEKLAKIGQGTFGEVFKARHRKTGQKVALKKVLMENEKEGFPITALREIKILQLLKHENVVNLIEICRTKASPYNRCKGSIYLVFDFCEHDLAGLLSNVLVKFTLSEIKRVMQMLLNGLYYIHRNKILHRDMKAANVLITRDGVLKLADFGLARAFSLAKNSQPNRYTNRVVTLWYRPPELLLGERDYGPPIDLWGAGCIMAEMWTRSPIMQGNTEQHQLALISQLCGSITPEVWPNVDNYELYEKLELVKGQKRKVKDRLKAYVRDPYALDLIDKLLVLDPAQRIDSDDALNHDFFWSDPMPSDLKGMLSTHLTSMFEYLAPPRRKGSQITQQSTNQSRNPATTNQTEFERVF
# T6 sequence (O60563 whole entry partner): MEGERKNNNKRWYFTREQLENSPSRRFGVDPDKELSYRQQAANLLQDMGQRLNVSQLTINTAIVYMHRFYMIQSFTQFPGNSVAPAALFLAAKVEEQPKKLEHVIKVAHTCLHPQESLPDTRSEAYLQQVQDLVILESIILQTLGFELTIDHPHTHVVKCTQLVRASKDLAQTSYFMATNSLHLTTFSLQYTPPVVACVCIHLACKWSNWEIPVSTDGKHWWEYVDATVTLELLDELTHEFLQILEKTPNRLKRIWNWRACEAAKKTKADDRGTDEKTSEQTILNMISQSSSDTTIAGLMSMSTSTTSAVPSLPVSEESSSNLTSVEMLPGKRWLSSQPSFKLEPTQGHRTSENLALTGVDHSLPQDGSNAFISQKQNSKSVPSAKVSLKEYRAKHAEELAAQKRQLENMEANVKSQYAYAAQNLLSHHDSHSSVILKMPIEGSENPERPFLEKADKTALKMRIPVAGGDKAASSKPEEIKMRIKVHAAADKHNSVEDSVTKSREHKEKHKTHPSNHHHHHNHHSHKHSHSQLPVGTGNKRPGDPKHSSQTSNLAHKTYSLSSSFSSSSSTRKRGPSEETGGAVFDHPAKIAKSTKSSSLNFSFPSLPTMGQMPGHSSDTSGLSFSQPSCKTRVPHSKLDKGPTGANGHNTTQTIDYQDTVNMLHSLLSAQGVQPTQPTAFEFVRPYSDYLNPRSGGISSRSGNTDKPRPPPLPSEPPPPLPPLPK
# T2 sequence (Q16584 whole entry): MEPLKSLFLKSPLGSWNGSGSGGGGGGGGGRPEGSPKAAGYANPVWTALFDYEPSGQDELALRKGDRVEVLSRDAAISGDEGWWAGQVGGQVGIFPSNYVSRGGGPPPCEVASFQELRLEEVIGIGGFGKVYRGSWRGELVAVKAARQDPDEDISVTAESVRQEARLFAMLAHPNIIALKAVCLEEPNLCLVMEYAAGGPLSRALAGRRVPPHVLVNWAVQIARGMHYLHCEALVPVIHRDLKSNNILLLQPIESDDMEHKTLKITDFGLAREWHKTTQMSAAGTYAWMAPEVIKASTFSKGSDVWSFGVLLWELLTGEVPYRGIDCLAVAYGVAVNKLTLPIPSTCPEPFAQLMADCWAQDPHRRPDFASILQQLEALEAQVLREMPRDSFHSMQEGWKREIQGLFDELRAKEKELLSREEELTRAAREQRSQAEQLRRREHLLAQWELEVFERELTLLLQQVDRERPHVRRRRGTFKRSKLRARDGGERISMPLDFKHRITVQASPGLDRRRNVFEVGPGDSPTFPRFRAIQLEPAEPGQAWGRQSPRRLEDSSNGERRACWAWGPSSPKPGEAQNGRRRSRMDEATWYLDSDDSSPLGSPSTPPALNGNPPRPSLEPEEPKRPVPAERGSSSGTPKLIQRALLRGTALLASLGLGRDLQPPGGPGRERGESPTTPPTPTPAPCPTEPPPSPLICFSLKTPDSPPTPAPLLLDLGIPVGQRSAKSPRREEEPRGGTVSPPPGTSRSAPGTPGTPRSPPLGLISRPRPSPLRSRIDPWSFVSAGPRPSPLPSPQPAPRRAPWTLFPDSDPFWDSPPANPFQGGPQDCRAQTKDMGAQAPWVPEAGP
# T5 sequence (P49841 whole entry): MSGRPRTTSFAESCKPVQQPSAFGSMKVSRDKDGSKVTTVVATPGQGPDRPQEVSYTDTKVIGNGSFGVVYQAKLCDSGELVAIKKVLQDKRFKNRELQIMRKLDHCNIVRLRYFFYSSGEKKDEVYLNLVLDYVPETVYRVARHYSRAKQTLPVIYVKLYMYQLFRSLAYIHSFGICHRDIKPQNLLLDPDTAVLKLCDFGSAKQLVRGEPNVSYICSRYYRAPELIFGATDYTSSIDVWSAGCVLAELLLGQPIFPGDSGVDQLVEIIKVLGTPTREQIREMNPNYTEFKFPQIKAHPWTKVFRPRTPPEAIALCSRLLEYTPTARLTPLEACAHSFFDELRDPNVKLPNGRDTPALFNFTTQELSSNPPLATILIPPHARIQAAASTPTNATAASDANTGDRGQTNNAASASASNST
# T1 sequence (Q00534 whole entry): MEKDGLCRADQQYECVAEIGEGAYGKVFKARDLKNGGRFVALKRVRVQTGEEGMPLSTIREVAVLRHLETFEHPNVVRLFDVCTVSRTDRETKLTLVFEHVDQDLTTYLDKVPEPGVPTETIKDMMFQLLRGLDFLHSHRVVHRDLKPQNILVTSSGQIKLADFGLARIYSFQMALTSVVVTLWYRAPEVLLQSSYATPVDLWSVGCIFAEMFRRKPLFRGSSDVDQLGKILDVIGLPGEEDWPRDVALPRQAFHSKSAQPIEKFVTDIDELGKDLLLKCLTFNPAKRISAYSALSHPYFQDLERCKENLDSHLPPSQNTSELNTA
# T3 sequence (Q8IZX4 whole entry): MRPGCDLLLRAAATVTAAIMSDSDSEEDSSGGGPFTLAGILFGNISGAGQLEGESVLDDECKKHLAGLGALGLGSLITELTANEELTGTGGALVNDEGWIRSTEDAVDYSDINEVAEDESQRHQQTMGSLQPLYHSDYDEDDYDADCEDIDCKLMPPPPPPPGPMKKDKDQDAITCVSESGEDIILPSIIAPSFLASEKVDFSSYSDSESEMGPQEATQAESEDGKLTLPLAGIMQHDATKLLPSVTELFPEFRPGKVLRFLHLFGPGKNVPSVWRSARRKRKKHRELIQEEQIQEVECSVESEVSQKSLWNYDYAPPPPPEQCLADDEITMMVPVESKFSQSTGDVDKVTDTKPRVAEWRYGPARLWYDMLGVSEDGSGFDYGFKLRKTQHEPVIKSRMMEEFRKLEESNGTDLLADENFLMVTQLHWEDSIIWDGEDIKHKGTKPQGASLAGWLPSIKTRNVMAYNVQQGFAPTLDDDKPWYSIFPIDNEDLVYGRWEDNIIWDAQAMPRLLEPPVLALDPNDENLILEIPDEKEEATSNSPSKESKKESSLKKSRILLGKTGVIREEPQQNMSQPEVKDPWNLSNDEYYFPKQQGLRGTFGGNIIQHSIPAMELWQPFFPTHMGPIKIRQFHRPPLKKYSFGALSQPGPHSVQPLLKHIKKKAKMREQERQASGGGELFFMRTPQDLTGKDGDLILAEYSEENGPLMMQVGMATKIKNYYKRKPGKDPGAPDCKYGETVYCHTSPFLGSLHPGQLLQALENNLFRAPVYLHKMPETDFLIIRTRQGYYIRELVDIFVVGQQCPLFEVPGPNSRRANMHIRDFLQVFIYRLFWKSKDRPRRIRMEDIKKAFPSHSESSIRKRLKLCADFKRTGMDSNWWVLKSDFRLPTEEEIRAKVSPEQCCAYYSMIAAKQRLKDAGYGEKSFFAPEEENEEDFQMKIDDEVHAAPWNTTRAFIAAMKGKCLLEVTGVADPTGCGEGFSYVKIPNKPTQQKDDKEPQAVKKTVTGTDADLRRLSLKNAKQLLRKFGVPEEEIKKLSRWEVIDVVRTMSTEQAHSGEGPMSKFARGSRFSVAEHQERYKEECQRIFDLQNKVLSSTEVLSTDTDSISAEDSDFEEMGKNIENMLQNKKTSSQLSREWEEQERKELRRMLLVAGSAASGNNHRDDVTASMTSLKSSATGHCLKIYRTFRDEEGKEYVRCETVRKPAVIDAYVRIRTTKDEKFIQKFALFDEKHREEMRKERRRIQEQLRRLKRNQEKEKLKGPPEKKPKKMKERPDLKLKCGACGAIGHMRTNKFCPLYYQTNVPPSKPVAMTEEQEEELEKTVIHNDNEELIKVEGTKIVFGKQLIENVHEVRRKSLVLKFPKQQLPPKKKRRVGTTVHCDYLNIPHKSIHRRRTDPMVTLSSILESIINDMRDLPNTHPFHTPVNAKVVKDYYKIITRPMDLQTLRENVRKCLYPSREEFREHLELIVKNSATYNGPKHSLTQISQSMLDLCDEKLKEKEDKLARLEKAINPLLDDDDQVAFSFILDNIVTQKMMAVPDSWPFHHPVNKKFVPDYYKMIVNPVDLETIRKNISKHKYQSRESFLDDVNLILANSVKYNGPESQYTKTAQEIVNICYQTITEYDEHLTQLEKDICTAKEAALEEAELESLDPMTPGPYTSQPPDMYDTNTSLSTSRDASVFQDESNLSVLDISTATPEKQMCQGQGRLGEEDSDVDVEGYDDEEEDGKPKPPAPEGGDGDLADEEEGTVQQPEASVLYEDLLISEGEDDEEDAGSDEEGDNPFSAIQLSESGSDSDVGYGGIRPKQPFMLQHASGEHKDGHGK
# Sequence of NRBP1 (Q9UHY1 whole entry): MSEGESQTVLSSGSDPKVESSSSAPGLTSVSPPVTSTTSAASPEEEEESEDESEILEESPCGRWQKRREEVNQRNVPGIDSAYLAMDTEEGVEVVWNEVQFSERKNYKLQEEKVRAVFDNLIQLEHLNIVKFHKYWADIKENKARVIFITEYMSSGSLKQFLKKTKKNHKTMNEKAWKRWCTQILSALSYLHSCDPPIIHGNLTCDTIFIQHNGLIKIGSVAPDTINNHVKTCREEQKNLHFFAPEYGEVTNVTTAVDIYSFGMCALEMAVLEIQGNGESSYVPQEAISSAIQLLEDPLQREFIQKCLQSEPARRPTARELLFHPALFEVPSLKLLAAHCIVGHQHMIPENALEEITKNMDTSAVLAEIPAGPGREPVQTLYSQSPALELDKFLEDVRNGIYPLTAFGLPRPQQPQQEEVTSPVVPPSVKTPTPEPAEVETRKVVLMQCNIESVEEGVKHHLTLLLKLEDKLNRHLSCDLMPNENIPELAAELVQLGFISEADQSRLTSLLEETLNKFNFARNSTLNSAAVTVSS
compound,measurement,setting,value
N#CCc1ccc(Nc2nc(NCCCN)cc(Nc3cc(C4CC4)[nH]n3)n2)cc1 [KAM],0.001 uM KAM,CDK6,0.01418
same,0.1 uM KAM,CDK6,-0.05531
same,1 uM KAM,CDK6,-0.08871
same,10 uM KAM,CDK6,-0.05328
same,0.001 uM KAM,MAP3K11,-0.02883
same,0.1 uM KAM,MAP3K11,-0.2112
same,1 uM KAM,MAP3K11,-0.4525
same,10 uM KAM,MAP3K11,-0.59
same,0.01 uM KAM,TAF1L,0.1793
same,1 uM KAM,TAF1L,-0.2683
same,IC50,"RPS6KC1; KAM 0.001-10 uM, read-out: RB50 (the source's name)",> 10 µM
same,0.001 uM KAM,RPS6KC1; relative to 0 uM KAM = 0,-0.005381
same,0.1 uM KAM,RPS6KC1; relative to 0 uM KAM = 0,-0.07914
same,1 uM KAM,RPS6KC1; relative to 0 uM KAM = 0,-0.09953
same,10 uM KAM,RPS6KC1; relative to 0 uM KAM = 0,-0.2964
same,median Log10 fold change,GSK3B; 0.001 uM KAM,0.01354
same,median Log10 fold change,GSK3B; 0.01 uM KAM,-0.16
same,median Log10 fold change,GSK3B; 0.1 uM KAM,-0.4584
same,median Log10 fold change,GSK3B; 1 uM KAM,-0.606
same,median Log10 fold change,GSK3B; 10 uM KAM,-0.568
same,IC50,"GSK3B; GSK3B, KAM-based affinity matrix, K562 lysates, read-out: RB50 (the source's name)",0.045 µM
same,median Log10 fold change,CDK9; 0.001 uM KAM,-0.01348
same,median Log10 fold change,CDK9; 0.01 uM KAM,-0.02502
same,median Log10 fold change,CDK9; 0.1 uM KAM,-0.3345
same,median Log10 fold change,CDK9; 1 uM KAM,-0.6226
same,median Log10 fold change,CDK9; 10 uM KAM,-0.7136
same,IC50,"CDK9; CDK9, KAM-based affinity matrix, K562 lysates, read-out: RB50 (the source's name)",0.112 µM
Cc1ccc(NC(=O)c2ccc(CN3CCN(C)CC3)cc2)cc1Nc1nccc(-c2cccnc2)n1 [Imatinib],IC50,ATM,> 10 µM
same,IC50,BRDT,> 10 µM
same,IC50,PSKH1,> 10 µM
same,IC50,NRBP1,> 10 µM
same,IC50,PIK3R4,> 10 µM
same,IC50,PSKH2,> 10 µM
